Like-named read-outs stand apart in the source and are kept apart here.
Tests used:
Assay type in all cases: in vivo
[1] = system: Spodoptera littoralis; test: Spodoptera littoralis (Egyptian cotton leaf worm), cotton leaf disc spray test; conditions: foliar, 72 h, read-out: control (at least one of mortality, anti-feedant effect, growth inhibition); for percent control (mortality, anti-feedant effect or growth inhibition) at 200 ppm: application rate 200 ppm, L1 larvae, 3 days after infestation
Protocol: Spodoptera littoralis (Egyptian Cotton Leaf Worm)
Cotton leaf discs were placed on agar in 24-well microtiter plates and sprayed with aqueous test solutions prepared from 10′000 ppm DMSO stock solutions. After drying the leaf discs were infested with five L1 larvae. The samples were assessed for mortality, anti-feedant effect, and growth inhibition in comparison to untreated samples 3 days after infestation. Control of Spodoptera littoralis by a test sample is when at least one of mortality, anti-feedant effect, and growth inhibition is higher than the untreated sample.

[2] = system: Plutella xylostella; test: Plutella xylostella (diamond back moth), artificial diet test; conditions: 120 h, read-out: control (mortality and growth inhibition)
Protocol: Plutella xylostella (Diamond Back Moth):
(§1) 24-well microtiter plates with artificial diet were treated with aqueous test solutions prepared from 10′000 ppm DMSO stock solutions by pipetting. After drying, the plates were infested with L2 larvae (10 to 15 per well). The samples were assessed for mortality and growth inhibition in comparison to untreated samples 5 days after infestation.

[3] = system: Diabrotica balteata; test: Diabrotica balteata (corn root worm), maize sprout test; conditions: 96 h, read-out: control (mortality and growth inhibition)
Protocol: Diabrotica balteata, (Corn Root Worm)
as §1, with “Maize sprouts, placed on an agar layer in 24-well” for “24-well”, “plates” for “plates with artificial diet”, “spraying.” for “pipetting.”, “(6” for “(10”, “10” for “15”, “4” for “5”

[4] = system: Thrips tabaci; test: Thrips tabaci (onion thrips), sunflower leaf disc test; conditions: foliar, 144 h, read-out: control (mortality)
Protocol: Thrips tabaci (Onion Thrips):
(§2) Sunflower leaf discs were placed on agar in 24-well microtiter plates and sprayed with aqueous test solutions prepared from 10′000 ppm DMSO stock solutions. After drying the leaf discs were infested with a thrips population of mixed ages. The samples were assessed for mortality 6 days after infestation.

[5] = system: Euschistus heros; test: Euschistus heros (neotropical brown stink bug), soybean leaf test; conditions: 120 h, read-out: effect in at least one of the two categories (mortality or growth inhibition); for percent effect (mortality or growth inhibition) at 200 ppm: application rate 200 ppm, N2 nymphs, 5 days after infestation
Protocol: Euschistus heros (Neotropical Brown Stink Bug):
Soybean leaves on agar in 24-well microtiter plates were sprayed with aqueous test solutions prepared from 10′000 ppm DMSO stock solutions. After drying the leaves were infested with N2 nymphs. The samples were assessed for mortality and growth inhibition in comparison to untreated samples 5 days after infestation.

[6] = system: Myzus persicae; test: Myzus persicae (green peach aphid), sucrose solution / Parafilm test; conditions: 120 h
From the text: Myzus persicae (Green Peach Aphid):
Test compounds were applied by pipette into 24 well plates and mixed with Sucrose solution. Application rate: 12.5 ppm. The plates were closed with a stretched parafilm. A plastic stencil with 24 holes is placed onto the plate and infested pea seedlings were placed directly on the Parafilm. The infested plate is closed with a gel blotting paper and another plastic stencil and then turned upside down. 5 days after infestation the samples were checked on mortality.

[7] = system: Tetranychus urticae; test: Tetranychus urticae (two-spotted spider mite), bean leaf disc test; conditions: foliar, 192 h, read-out: control (mortality on mixed population, mobile stages)
Protocol: Tetranychus urticae (Two-Spotted Spider Mite):
as §2, with “Bean” for “Sunflower”, “discs” for “discs were placed”, “were” for “and”, “mite” for “thrips”, “on mixed population (mobile stages) 8” for “6”

[8] = application rate 200 ppm, 8 days after infestation
[9] = application rate 200 ppm, L2 larvae, 4 days after infestation
[10] = application rate 200 ppm, mixed ages, 6 days after infestation
[11] = application rate 200 ppm, L2 larvae, 5 days after infestation
[12] = test rate of 12 ppm, sucrose solution, 5 days after infestation, read-out: mortality

Cn1nc(SCC(F)(F)C(F)F)c(Br)c1-n1cc(-c2ccc(Cl)c(C(=O)NC3CC3)c2)cn1 [compound 57]
≥ 80%: percent control (mortality, anti-feedant effect or growth inhibition) at 200 ppm [1]

Cn1nc(OS(=O)(=O)C(F)(F)C(F)(F)C(F)(F)C(F)(F)F)c(C(F)(F)F)c1-n1cc(-c2ccc(Cl)c(C(=O)NC3(C#N)CC3)c2)cn1 [compound 36]
≥ 80%: mortality at 200 ppm [2] | mortality at 200 ppm [3] | mortality at 200 ppm [4] | percent control (mortality or growth inhibition) at 200 ppm [5] | mortality at 12 ppm [6]

Cn1nc(OC(F)(F)C(F)(F)C(F)(F)C(F)(F)C(F)(F)C(F)(F)F)c(C(F)(F)F)c1-n1cc(-c2ccc(Cl)c(C(=O)NC3CC3)c2)cn1 [compound 39]
≥ 80%: mortality at 200 ppm [7] | mortality at 200 ppm [2] | mortality at 200 ppm [3] | mortality at 200 ppm [1] | mortality at 200 ppm [4] | percent control (mortality or growth inhibition) at 200 ppm [5]

Cn1nc(OC(F)(F)C(F)(F)C(F)(F)C(F)(F)C(F)(F)C(F)(F)F)c(C(F)(F)F)c1-n1cc(-c2ccc(Cl)c(C(=O)NC3(C#N)CC3)c2)cn1 [compound 38]
≥ 80%: mortality at 200 ppm [2] | mortality at 200 ppm [3] | mortality at 200 ppm [1] | mortality at 200 ppm [4] | percent control (mortality or growth inhibition) at 200 ppm [5]

Cn1nc(OC(F)(F)C(F)C(F)(F)F)c(C(F)(F)F)c1-n1cc(-c2cccc(C(=O)NC3CC3)c2F)cn1 (stereo not drawn) [compound 68]
≥ 80%: mortality at 200 ppm [7, 8] | mortality at 200 ppm [3, 9] | percent control (mortality, anti-feedant effect or growth inhibition) at 200 ppm [1] | mortality at 200 ppm [4, 10]

COc1nn(C)c(-n2cc(-c3ccc(Cl)c(C(=O)N(C)C4(C#N)CC4)c3)cn2)c1C(F)(F)F [compound 56]
≥ 80%: mortality at 200 ppm [2, 11] | mortality at 200 ppm [3, 9] | mortality at 12 ppm [6, 12]

Cn1nc(OCC(F)(F)C(F)(F)C(F)(F)C(F)(F)C(F)(F)C(F)(F)C(F)(F)F)c(C(F)(F)F)c1-n1cc(-c2ccc(Cl)c(C(=O)NC3(C#N)CC3)c2)cn1 [compound 22]
≥ 80%: mortality at 200 ppm [2] | mortality at 200 ppm [3] | mortality at 200 ppm [1]

Cn1nc(O/C(=C\F)C(F)(F)F)c(C(F)(F)F)c1-n1cc(-c2ccc(Cl)c(C(=O)NC3(C#N)CC3)c2)cn1 [compound 49]
≥ 80%: mortality at 200 ppm [7, 8] | percent control (mortality, anti-feedant effect or growth inhibition) at 200 ppm [1] | percent effect (mortality or growth inhibition) at 200 ppm [5] | mortality at 12 ppm [6, 12]

CCNC(=O)c1cc(-c2cnn(-c3c(C(F)(F)F)c(OC(F)(F)C(F)C(F)(F)F)nn3C)c2)ccc1Cl (stereo not drawn) [compound 9]
≥ 80%: mortality at 200 ppm [7, 8] | mortality at 200 ppm [2, 11] | mortality at 200 ppm [3, 9] | percent control (mortality, anti-feedant effect or growth inhibition) at 200 ppm [1] | mortality at 200 ppm [4, 10] | percent effect (mortality or growth inhibition) at 200 ppm [5] | mortality at 12 ppm [6, 12]

Cn1nc(O/C(F)=C/C(F)(F)F)c(C(F)(F)F)c1-n1cc(-c2ccc(Cl)c(C(=O)NC3(C#N)CC3)c2)cn1 [compound 48]
≥ 80%: mortality at 200 ppm [7, 8] | mortality at 200 ppm [2, 11] | mortality at 200 ppm [3, 9] | percent control (mortality, anti-feedant effect or growth inhibition) at 200 ppm [1] | mortality at 200 ppm [4, 10] | percent effect (mortality or growth inhibition) at 200 ppm [5] | mortality at 12 ppm [6, 12]

Cn1nc(OC(F)(F)C(F)=C(C(F)(F)F)C(F)(F)F)c(C(F)(F)F)c1-n1cc(-c2ccc(Cl)c(C(=O)NC3(C#N)CC3)c2)cn1 [compound 14]
≥ 80%: mortality at 200 ppm [7, 8]

Cn1nc(SCCC(F)(F)C(F)(F)C(F)(F)C(F)(F)C(F)(F)C(F)(F)F)c(Br)c1-n1cc(-c2ccc(Cl)c(C(=O)NC3CC3)c2)cn1 [compound 54]
≥ 80%: mortality at 200 ppm [2] | mortality at 200 ppm [1]

Cn1nc(OC(F)(F)C(F)C(F)(F)F)c(C(F)(F)F)c1-n1cc(-c2ccc(Cl)c(C(=O)NCC#N)c2)cn1 (stereo not drawn) [compound 10]
≥ 80%: mortality at 200 ppm [7, 8] | mortality at 200 ppm [2, 11] | mortality at 200 ppm [3, 9] | percent control (mortality, anti-feedant effect or growth inhibition) at 200 ppm [1] | mortality at 200 ppm [4, 10] | mortality at 12 ppm [6, 12]

Cn1nc(OC(F)=C(F)C(F)(F)F)c(C(F)(F)F)c1-n1cc(-c2ccc(Cl)c(C(=O)NC3(C#N)CC3)c2)cn1 [compound 52]
≥ 80%: mortality at 200 ppm [7, 8] | mortality at 200 ppm [4, 10] | percent effect (mortality or growth inhibition) at 200 ppm [5] | mortality at 12 ppm [6, 12]

Cn1nc(OC(F)=C(F)C(F)(F)F)c(C(F)(F)F)c1-n1cc(-c2ccc(Cl)c(C(=O)NC3CC3)c2)cn1 [compound 53]
≥ 80%: mortality at 200 ppm [7, 8] | mortality at 200 ppm [2, 11] | mortality at 200 ppm [3, 9] | percent control (mortality, anti-feedant effect or growth inhibition) at 200 ppm [1] | mortality at 200 ppm [4, 10] | percent effect (mortality or growth inhibition) at 200 ppm [5] | mortality at 12 ppm [6, 12]

Cn1nc(OCC(F)(F)C(F)(F)C(F)(F)C(F)(F)C(F)(F)C(F)(F)C(F)(F)F)c(C(F)(F)F)c1-n1cc(-c2ccc(Cl)c(C(=O)NC3CC3)c2)cn1 [compound 31]
≥ 80%: mortality at 200 ppm [2]

Cn1nc(OC(Cl)(Cl)C(Cl)=C(Cl)Cl)c(C(F)(F)F)c1-n1cc(-c2ccc(Cl)c(C(=O)NC3CC3)c2)cn1 [compound 67]
≥ 80%: mortality at 200 ppm [3, 9] | mortality at 200 ppm [4, 10]

Cn1nc(OS(=O)(=O)C(F)(F)C(F)(F)C(F)(F)C(F)(F)F)c(C(F)(F)F)c1-n1cc(-c2ccc(Cl)c(C(=O)NC3CC3)c2)cn1 [compound 37]
≥ 80%: mortality at 200 ppm [2] | mortality at 200 ppm [3] | mortality at 200 ppm [4] | percent control (mortality or growth inhibition) at 200 ppm [5] | mortality at 12 ppm [6]

Cn1nc(OCCC(F)=C(F)F)c(C(F)(F)F)c1-n1cc(-c2ccc(Cl)c(C(=O)NC3(C#N)CC3)c2)cn1 [compound 46]
≥ 80%: mortality at 200 ppm [2, 11] | percent control (mortality, anti-feedant effect or growth inhibition) at 200 ppm [1] | mortality at 200 ppm [4, 10]

Cn1nc(OCCOC(F)(F)F)c(C(F)(F)F)c1-n1cc(-c2ccc(Cl)c(C(=O)NC3(C#N)CC3)c2)cn1 [compound 28]
≥ 80%: percent effect (mortality or growth inhibition) at 200 ppm [5] | mortality at 12 ppm [6, 12]

Cn1nc(OC(F)(F)C(F)C(F)(F)F)c(C(F)(F)F)c1-n1cc(-c2ccc(Cl)c(C(=O)N(/C(F)=C(\F)C(F)(F)F)C3(C#N)CC3)c2)cn1 (stereo not drawn) [compound 7]
≥ 80%: mortality at 200 ppm [7, 8] | mortality at 200 ppm [2, 11] | mortality at 200 ppm [3, 9] | percent control (mortality, anti-feedant effect or growth inhibition) at 200 ppm [1] | mortality at 200 ppm [4, 10]

Cn1nc(OS(=O)(=O)C(F)(F)F)c(C(F)(F)F)c1-n1cc(-c2ccc(Cl)c(C(=O)NC3(C#N)CC3)c2)cn1 [compound 16]
≥ 80%: mortality at 200 ppm [7, 8] | mortality at 200 ppm [2, 11] | mortality at 200 ppm [3, 9] | percent control (mortality, anti-feedant effect or growth inhibition) at 200 ppm [1] | mortality at 200 ppm [4, 10] | percent effect (mortality or growth inhibition) at 200 ppm [5]

Cn1nc(OCCCCC(F)=C(F)F)c(C(F)(F)F)c1-n1cc(-c2ccc(Cl)c(C(=O)NC3CC3)c2)cn1 [compound 29]
≥ 80%: mortality at 200 ppm [3, 9]

Cn1nc(O/C(=C(/F)C(F)(F)F)C(F)(F)F)c(C(F)(F)F)c1-n1cc(-c2ccc(Cl)c(C(=O)NC3(C#N)CC3)c2)cn1 [compound 42]
≥ 80%: mortality at 200 ppm [2, 11] | mortality at 200 ppm [3, 9] | percent control (mortality, anti-feedant effect or growth inhibition) at 200 ppm [1] | percent effect (mortality or growth inhibition) at 200 ppm [5]

Cn1nc(OCCCCC(F)=C(F)F)c(C(F)(F)F)c1-n1cc(-c2ccc(Cl)c(C(=O)NC3(C#N)CC3)c2)cn1 [compound 21]
≥ 80%: mortality at 200 ppm [7, 8] | percent effect (mortality or growth inhibition) at 200 ppm [5]

Reference: patent publication US10750742B2, “Pesticidally active pyrazole derivatives” (SYNGENTA PARTICIPATIONS AG, priority 2015, dated 2020)
